Source: PMC11936910, “Population pharmacokinetics of polymyxin B in critically ill patients with carbapenem-resistant organisms infections: insights from steady-state trough and peak plasma concentration” (Frontiers in Pharmacology, 2025)
Like-named read-outs stand apart in the source and are kept apart here. Bridge positions count the residues as written; N and C are the ends. Square brackets hold non-standard residues; d marks the D form. Peptide text beside a SMILES is read from it. * marks the point of attachment. X1 = CC[C@H](C)CCCCC(=O)*; Dab = NCC[C@H](N)C(=O)O

Assays:
[1] = Steady-state trough and peak plasma concentrations of PMB (UPLC-MS/MS) and AUCss,24h estimation; type: in vivo, critically ill patients; details: for Cmax / AUC(0-t): human, plasma, iv; for Cmax: sample immediately after infusion, UPLC-MS/MS, read-out: Cpeak, ss; for AUC(0-t): two-point method (Ctrough,ss and Cpeak,ss, first-order elimination equation), mean ± SD, SD, read-out: Equation-based AUCss,24h
Description: A single-center prospective study was conducted in the intensive care unit (ICU) of the First Affiliated Hospital of Army Medical University from August 2021 to July 2024. Inclusion criteria: (1) patients aged ≥18 years; (2) patients receiving intravenous PMB for CRO infections confirmed by pathogen testing; (3) patients receiving at least four consecutive doses of intravenous PMB, or a loading dose followed by at least three consecutive doses. Exclusion criteria: (1) patients with missing clinical data; (2) patients hospitalized for fewer than 7 days; (3) patients receiving any form of renal replacement therapy during PMB treatment; (4) pregnant women. The research protocol was approved by the Ethics Committee of our hospital (No. (A) KY2021064).
After at least 48 h of treatment, two blood samples were collected: one immediately before the infusion and the other immediately after. The exact times of blood sampling and infusion were recorded for each patient. Plasma was separated by low-temperature, low-speed centrifugation and stored at −70°C until analysis.
PMB concentrations were analyzed using a validated ultra-performance liquid chromatography-tandem mass spectrometry (UPLC-MS/MS) method. Briefly, using polymyxin E2 as the internal standard, the assay was linear over 0.2–20.0 mg·L^-1 and 0.05–5 mg·L^-1 (r > 0.995) for PMB1 and PMB2 respectively. […] PMB concentration was calculated as follows: total concentration of PMB = [PMB1 concentration/PMB1 molecular + PMB2 concentration/PMB2 molecular]*total PMB molecular ([Liu et al., 2023]).
Data analysis was performed SPSS (version 26.0, IBM, United States) and GraphPad Prism (version 8.3.0, CA, United States). Variables with a normal distribution were expressed as mean ± standard deviation (SD), while non-normally distributed variables were reported as median (interquartile range, IQR). Categorical data were presented as percentages (%). Comparisons between two groups were conducted using the Mann-Whitney U test for non-normally distributed data and the independent t-test for normally distributed data. The estimation of AUCss,24h used the two-point method was presented in Equations 3–5 ([Liu et al., 2023]), while the estimation of AUCss,24h based on the PopPK model was obtained by dividing the total 24-hour drug dose by the individual clearance. Bland-Altman analysis was performed to evaluate the consistency of AUCss,24h estimates obtained by the two methods. AUCss,24h values were categorized as “within the therapeutic window” (50–100 mg·h·L^-1), and McNemar’s test and Kappa test were applied to assess the consistency of AUCss,24h classifications. ke=lnCpeak,ss−lnCtrough,ss/τ−Infusion (3) Csoi′ =Cpeak,ss/e^−ke⋅Infusion (4) AUCss,24h=Csoi^′−Ctrough,ss/ke×n (5) Infusion time; τ: dosing interval; Csoi' is the exploratory concentration at the start of dosing based on the one-compartment linear elimination pharmacokinetic assumption; ke: elimination rate constant; n is the number of doses within 24 h.

[2] = Population pharmacokinetic (PopPK) model of PMB, NONMEM, one-compartment; type: in vivo, critically ill patients
Excerpt: The PopPK model was developed using nonlinear mixed-effects modeling software: NONMEM (version 7.5.1, ICON plc, United States), Pirana (version 23.1.2, Certara L.P., United States), and PsN (version 5.3.0, https://uupharmacometrics.github.io/PsN/), with the first-order conditional estimation method including interaction (FOCE-I). The base model was selected based on goodness-of-fit (GOF) diagnostic plots, relative standard error (RSE) of parameters, and the objective function value (OFV). Spearman correlation was used to evaluate the relationships between covariates and individual empirical Bayesian estimates (EBEs) of PK parameters before covariate selection. A decrease in OFV >3.84 (P < 0.05, χ^2, df = 1) for forward addition and an increase >6.63 (P < 0.01, χ^2, df = 1) for backward elimination were the criteria for covariate inclusion. GOF plots were used to assess the model. To assess the stability of the final model and the precision of the PK parameters, a bootstrap method with 1,000 resampling iterations was performed. The final model was then subjected to 1,000 simulations for visual predictive checks (VPC) to evaluate the model’s predictive ability and accuracy. The accuracy and predictive performance of the model were further assessed using normalized prediction distribution errors (NPDE) plots. Statistical validation of the model was conducted using the t-test, Fisher’s test, Shapiro-Wilk test, and the Global test.
The patients were divided into a modeling group and a validation group based on the chronological order of enrollment and in accordance with the inclusion and exclusion criteria. External validation of the final model was performed using the validation group data. The mean prediction error (MPE), mean absolute prediction error (MAPE) (Equations 1, 2), F20 (20% of the absolute value of the prediction error), and F30 were calculated by comparing the predicted values with the observed values. Model performance was considered acceptable if MPE% ≤ ±20%, MAPE% ≤ 30%, F20 ≥ 35%, and F30 ≥ 50% ([Mao et al., 2018]). MPE%=1/N∑i=1Npredi−obsi/obsi×100 (1) MAPE%=1/N∑i=1Npredi−obsi/obsi×100 (2) predi denotes the i-th predicted value, and obsi its corresponding observed value.
A one-compartment model with first-order elimination best fit the population data of PMB in critically ill patients. Inter-individual variability was described using an exponential random effects model, while residual variability was described using both proportional and additive error models.

CRO strains = assay: MICs of PMB against CRO strains; type: cell-based, carbapenem-resistant organisms
[3] = cited from earlier work
Excerpt: In contrast, the lower CL observed in previous studies by Li et al. (1.18 L·h^-1) and Yu et al. (1.59 L·h^-1) may reflect differences in renal function and patient characteristics. Our study reported a value of 18 L, which ...

[4] = cited from earlier work; remark: listed apart in the source
Excerpt: The association between PMB pharmacokinetics and CrCL is still debated.

[5] = bootstrap median, 1,000 resampling iterations
[6] = CRO-infected patients, covariate TBW, ref Manchandani et al., 2018
[7] = CRO-infected patients, ref Kubin et al., 2018
[8] = Critically ill patients, covariate CrCL, ref Yu et al., 2020
[9] = Cystic fibrosis patients, covariate TBW, ref Crass et al., 2021
[10] = Kidney transplant patients, covariate CrCL, ref Li et al., 2021

CC[C@H](C)CCCCC(=O)N[C@@H](CCN)C(=O)N[C@H](C(=O)N[C@@H](CCN)C(=O)N[C@H]1CCNC(=O)[C@H]([C@@H](C)O)NC(=O)[C@H](CCN)NC(=O)[C@H](CCN)NC(=O)[C@H](CC(C)C)NC(=O)[C@@H](Cc2ccccc2)NC(=O)[C@H](CCN)NC1=O)[C@@H](C)O [PMB, polymyxin B] (X1-[Dab]T[Dab][Dab][Dab][dF]L[Dab][Dab]T; lactam 4-C)
AUCss,24h within the range of 50–100, share of values ([1]; estimated by the PPK model, 55/106 values (modeling and validation group)): 51.89% | AUCss,24h within the range of 50–100, share of values ([1]; estimated using the two-point method, 49/106 values): 46.23% | Cmax ([1]; modeling set (n = 80), median (IQR)): 5730 ng/mL | AUC(0-t) ([1]; modeling set): 102000 ± 57900 ng·h/mL | Cmax ([1]; validation set (n = 15), median (IQR)): 4340 ng/mL | AUC(0-t) ([1]; validation set): 90500 ± 43400 ng·h/mL | Model-based AUCss,24h ([1]; modeling set, total 24-hour dose divided by individual clearance from PopPK model, median (IQR)): 74.07 (55.81–94.07) mg·h/L | CL [2, 5]: 2.02 L/h | V [2, 5]: 17.98 L | V ([2]; final model estimate, modeling group n = 80): 18 L | CL ([2]; final model estimate, modeling group n = 80, 184 samples): 2.03 L/h | Share with MIC of PMB 16 mg·L^-1 (CRO strains; modeling group, 3/80): 3.75% | Share with MIC of PMB 2 mg L^-1 (CRO strains; modeling group, 8/80): 10% | Share with MIC of PMB 1 mg·L^-1 (CRO strains; modeling group, 11/80): 13.75% | Share with MIC of PMB 2 mg·L^-1 (CRO strains; validation group, 2/15): 13.33% | Share with MIC of PMB 1 mg·L^-1 (CRO strains; validation group, 4/15): 26.67% | Share with MIC of PMB ≤0.5 mg·L^-1 (CRO strains; validation group, 9/15): 60% | CL [3, 6]: 2.50 L/h | Vd [3, 6]: 34.30 L | CL [3, 7]: 2.37 L/h | Vd [3, 7]: 34.40 L | CL [3, 8]: 1.59 L/h | Vd [3, 8]: 20.50 L | CL [3, 9]: 2.09 L/h | Vd [3, 9]: 12.70 L | CL [3, 10]: 1.18 L/h | Vd [3, 10]: 12.90 L | Urinary recovery ([4]; 17 patients, ref Sandri et al., 2013b): 0.98% to 17.40 | Urinary recovery rate ([4]; four patients, ref Yu et al., 2020): 23.56%
